Laboratory results published in publication PMC10419083, “Actions of a Novel Bacterial Topoisomerase Inhibitor against Neisseria gonorrhoeae Gyrase and Topoisomerase IV: Enhancement of Double-Stranded DNA Breaks” (International Journal of Molecular Sciences, 2023).

Biological target: T1, human topoisomerase IIα (Homo sapiens, UniProt P11388)
T1 construct: gene TOP2A; recombinant wild-type, expressed in Saccharomyces cerevisiae and purified
Test: DNA cleavage assay, pBR322, agarose gel
Format: biochemical
Conditions: single-stranded and double-stranded DNA break induction; 300 nM enzyme, 25 mM MgCl2, 500 mM KCl, pH 7.9, 37 °C, 10 min

T1 sequence (P11388 whole entry): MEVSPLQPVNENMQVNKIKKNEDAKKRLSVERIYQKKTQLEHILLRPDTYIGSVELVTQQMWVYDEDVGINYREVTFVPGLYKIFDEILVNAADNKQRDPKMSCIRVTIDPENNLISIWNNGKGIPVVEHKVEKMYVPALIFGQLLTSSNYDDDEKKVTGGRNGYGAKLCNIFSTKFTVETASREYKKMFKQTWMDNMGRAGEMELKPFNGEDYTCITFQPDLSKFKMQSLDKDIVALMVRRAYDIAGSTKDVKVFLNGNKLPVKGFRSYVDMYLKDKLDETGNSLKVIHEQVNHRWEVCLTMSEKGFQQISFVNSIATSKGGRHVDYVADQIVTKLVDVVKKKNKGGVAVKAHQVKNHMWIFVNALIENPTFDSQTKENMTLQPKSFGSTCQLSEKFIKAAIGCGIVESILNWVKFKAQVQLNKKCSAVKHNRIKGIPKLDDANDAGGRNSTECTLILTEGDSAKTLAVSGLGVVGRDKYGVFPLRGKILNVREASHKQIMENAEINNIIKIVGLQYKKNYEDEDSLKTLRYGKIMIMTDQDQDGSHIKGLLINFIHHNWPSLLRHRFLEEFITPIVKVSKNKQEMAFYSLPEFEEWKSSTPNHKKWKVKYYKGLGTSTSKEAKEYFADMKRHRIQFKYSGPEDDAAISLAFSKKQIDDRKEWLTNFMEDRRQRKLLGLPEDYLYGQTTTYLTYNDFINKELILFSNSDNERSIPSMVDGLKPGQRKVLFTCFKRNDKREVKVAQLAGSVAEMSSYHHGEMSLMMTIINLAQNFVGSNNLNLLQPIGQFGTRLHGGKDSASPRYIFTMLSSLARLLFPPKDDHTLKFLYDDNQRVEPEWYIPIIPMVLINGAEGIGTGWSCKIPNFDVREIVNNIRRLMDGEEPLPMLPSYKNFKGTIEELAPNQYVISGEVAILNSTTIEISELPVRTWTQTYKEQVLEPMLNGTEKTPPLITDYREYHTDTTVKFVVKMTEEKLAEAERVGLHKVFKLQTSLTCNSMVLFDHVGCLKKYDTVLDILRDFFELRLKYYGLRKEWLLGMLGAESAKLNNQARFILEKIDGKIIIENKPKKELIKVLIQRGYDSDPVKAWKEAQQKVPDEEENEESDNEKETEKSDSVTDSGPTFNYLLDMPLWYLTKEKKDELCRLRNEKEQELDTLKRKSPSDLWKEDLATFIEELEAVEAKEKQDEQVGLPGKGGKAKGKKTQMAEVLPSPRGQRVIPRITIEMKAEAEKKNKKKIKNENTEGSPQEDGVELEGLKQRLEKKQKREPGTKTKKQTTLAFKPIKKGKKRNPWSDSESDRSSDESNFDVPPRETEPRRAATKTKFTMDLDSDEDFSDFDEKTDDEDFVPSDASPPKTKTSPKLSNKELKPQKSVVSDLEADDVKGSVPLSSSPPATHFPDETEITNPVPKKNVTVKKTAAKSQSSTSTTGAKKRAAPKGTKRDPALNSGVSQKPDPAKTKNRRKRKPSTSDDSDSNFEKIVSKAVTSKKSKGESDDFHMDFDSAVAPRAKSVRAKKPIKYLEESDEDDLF

`COc1ccc2nccc(CC[C@H]3OC[C@H](NC(=O)c4ccc5c(c4)NC(=O)CO5)CO3)c2c1` [OSUAB-185] was tested, and the CC50 was “reasonable activity against the human type II enzyme, with CC50 values in the low µM”.
